Data as given in patent US20040167203A1, “Absorption enhancing agents” (priority 2003, published 2004).
Where two headings read alike, the source gives them in different places.

What was measured:
[1] = tested on: Caco-2 cells; assay: Lactate dehydrogenase (LDH) leakage assay after permeation studies; format: cell-based, human; settings: relative to cells treated with Hank's balanced salt solution alone
Text: (§1) The Caco-2 cell line is a well-recognized in vitro screening model, which both structurally and functionally represents the small intestinal epithelium. Caco-2 cells are derived from human colon carcinoma cells and differentiate in culture to form intestinal epithelia similar to that found in the small intestine. More specifically, Caco-2 cells form a brush border with normal enzymes, form tight junctions between cells, and acquire the barrier properties of an enterocyte sheet. […] The absorption enhancers were tested using two model drugs, sampatrilat and hydrochlorothiazide. In addition, a lactate dehydrogenase (LDH) assay was conducted after the permeation studies to evaluate the cytotoxicity of the absorption enhancers as well as to discover any violation of the integrity of the Caco-2 cells. LDH is a cytosolic enzyme that is not normally secreted outside the cell. However, it leaks into the culture medium upon damage to the cell membranes. In vitro release of LDH from cells provides an accurate measure of cell membrane integrity and cell viability. […] Wu, S.-J., et al, Pharmaceutical Res., 16(8): 1266-1272 (1999); Allen, M. J. et al., Promega Notes Magazine, Number 45, p. 7 (1994); or Ehrlich, M. et al, Current Protocols in Toxicology, John Wiley & Sons, New York (2000). LDH leakage into the apical compartment of the Caco-2 cell system was used to measure the effect, if any, of a given absorption enhancer on the viability of the Caco-2 cells.

[2] = tested on: Caco-2 cell line; format: in vitro ADME; settings: human, Caco-2, 1.8 mg/mL
Description: The original cell line integrity and the effect of excipients on the integrity of cell line were also tested by measuring the flux of ^14C-mannitol.

[3] = in vitro; format: in vitro ADME; settings: human, Caco-2
Text: as §1
(§2) Permeability coefficients are determined as previously reported by Yazdania et.el (Yazdanian M, Glynn, S I, Wright J L, et al. 1998. Correlating partitioning and Caco-2 permeability of structurally diverse small molecular weight compounds. Pharm Res 15:1490-1494). […] The samples are analyzed by an HPLC. Transport rates (J) are determined by plotting cumulative amounts of drug permeated as a function of time. Apparent permeability coefficients Pcaco-2, are determined according to the equation Pcaco-2=J/ACi where Ci is the initial concentration of the solution in donor chamber and A is the surface area of the filter. […]

[4] = tested on: Caco-2 cell line; assay: in vitro; format: in vitro ADME; settings: human, Caco-2, 1 % w/v
Text: as §1, §2

[5] = tested on: Caco-2 cell line; format: in vitro ADME, human
Text: as §1
Permeability coefficients are determined as previously reported by Yazdania et.el (Yazdanian M, Glynn, S I, Wright J L, et al. 1998. Correlating partitioning and Caco-2 permeability of structurally diverse small molecular weight compounds. Pharm Res 15:1490-1494). Briefly, drug solutions were prepared in HBSS at a known final concentration. For AP to BL experiments, the solution was placed on the apical side of the cells and samples were taken from basolateral side. In contrast, for BL to AP experiments, the solution was placed on the basolateral side of the cells and samples were taken from apical side. The samples are analyzed by an HPLC. Transport rates (J) are determined by plotting cumulative amounts of drug permeated as a function of time. Apparent permeability coefficients Pcaco-2, are determined according to the equation Pcaco-2=J/ACi where Ci is the initial concentration of the solution in donor chamber and A is the surface area of the filter.

In the case of `O=C(O)C1=C[C@@H](O)[C@@H](O)[C@H](O)C1` [Shikimic acid, shikimic acid], the “Cytotoxicity (LDH assay)” value [1] is reported as “not cytotoxic”.

With `CS(=O)(=O)N[C@@H](CCCCN)C(=O)NC[C@H](CC1(C(=O)N[C@@H](Cc2ccc(O)cc2)C(=O)O)CCCC1)C(=O)O` [Sampatrilat] the “Permeability Coefficient, Mannitol” value [2] was 4.9 10E−7 cm/s and the Papp A→B at 1.8 mg/mL [3] was 0.16 ×10⁻⁶ cm/s.

For `O=C(O)CCCCCCCCC(=O)O` [Sebacic acid, sebacic acid], the “Cytotoxicity (LDH assay)” value [1] was “not cytotoxic” and the “Effect on sampatrilat permeation across the Caco-2 cell line (in words)” value [4] was “significantly increase”.

For `CC1(C)[C@@H](O)CC[C@]2(C)[C@H]3C(=O)C=C4[C@@H]5C[C@@](C)(C(=O)O)CC[C@]5(C)CC[C@@]4(C)[C@]3(C)CC[C@@H]12` [Glycyrrehetinic acid, 18 β-glycyrrhetinic acid], the “Potency in permeability enhancement (in words)” value (shortened to “Potency”) ([5]; human) was “low or no potency”.

With `O=C(/C=C/C=C/c1ccc2c(c1)OCO2)N1CCCCC1` [Piperine, piperine] the “Potency” value ([5]; human) was “low or no potency”.

With `CN(C)CC(=O)O` [N,N-dimethylglycine] the “Cytotoxicity (LDH assay)” value [1] was “not cytotoxic” and the “Effect on sampatrilat permeation across the Caco-2 cell line (in words)” value [4] was “significantly increase”.

For Vitamin E TPGS [Vitamin E TGPS], the “Potency” value [5] was “low or no potency”.

In the case of `O=C1CCCCCCCCCCCCCCO1` [Cyclopentadecanolide, cyclopentadecanolide], the “Potency” value [5] is reported as “low or no potency”.
